Assay results as given in US10077261B2, “Imidazolin-5-one derivative useful as FASN inhibitors for the treatment of cancer” (Janssen Pharmaceutica NV, priority 2012, dated 2018).

Assays:
[1] = system: PC-3M-Luc-C6 prostate cells; experiment: In vitro PC-3M-Luc-C6 prostate cell proliferation assay in lipid reduced medium; format: cell-based; details: 96 h, read-out: pIC50 PC-3M-Luc-C6 prostate cell (converted)
Description: PC-3M-Luc-C6 prostate cells were obtained from Xenogen Corporation. Cells were maintained in MEM supplemented with 10% Fetal Calf Serum (FCS, Hyclone), 2 mM glutamine, 1 mM sodium pyruvate, 1% BME vitamins (available from for example, Sigma Aldrich), 0.1 mM non Essential Amino Acid and 50 μg/ml Gentamicin. The cells were passaged twice a week.
The next day 10 μl test compound/DMSO diluted in medium was added (3E-5M, 1E-5M, 3E-6M, 1E-6M, 3E-7M, 1E-7M, 3E-8M, 1E-8M final concentration). Compounds were tested in duplicate. After 96 h incubation at 37° C., 5% CO2 25 μl ATP-glow mix was added. The plate was incubated for 30 min at 37° C. and luminescence was measured with the Envision.
(§1) Analysis: Determination of pIC50 Values
(§2) pIC50 values were calculated as follows.
(§3) where mLC and mHC are the means of the low control wells and high control wells on the plate, after manual exclusion of outliers. The relation between the % Controlmin values and concentration was fitted to a 4-parameter logistic curve using a non-linear least squares regression method to determine the pIC50 value. Outlying data points were excluded manually to get a correct fit. The pIC50 corresponds to −log 10(IC50), if the IC50 is expressed in molar units (http://www.ncbi.nlm.nih.gov/books/NBK91994). The IC50 parameter was always determined by non-linear regression, but one or more of the other parameters may have been held fixed on a relevant input value, such as 0 for the bottom values.

[2] = system: A2780 ovarian cells; experiment: A2780 ovarian cell proliferation assay in lipid reduced medium, without palmitate (MTT); format: cell-based; details: Homo sapiens, A2780, 96 h; read-out: pIC50 A2780 Ovarian Cell, Without Palmitate (converted)
[3] = biological target: T1, hFASN enzyme (full length) (Homo sapiens, UniProt P49327); experiment: Fatty Acid Synthase (FASN) inhibition scintillation proximity assay; format: biochemical; details: for inhibition at 10 µM: read-out: Human FASN % inhibition @ 10 μM, 10 μM test compound; for IC50: read-out: Human FASN pIC50 (converted)
T1 construct: 10 μL hFASN enzyme (full length, 300 ng, purified in house); made in house
T1 sequence (P49327 whole entry): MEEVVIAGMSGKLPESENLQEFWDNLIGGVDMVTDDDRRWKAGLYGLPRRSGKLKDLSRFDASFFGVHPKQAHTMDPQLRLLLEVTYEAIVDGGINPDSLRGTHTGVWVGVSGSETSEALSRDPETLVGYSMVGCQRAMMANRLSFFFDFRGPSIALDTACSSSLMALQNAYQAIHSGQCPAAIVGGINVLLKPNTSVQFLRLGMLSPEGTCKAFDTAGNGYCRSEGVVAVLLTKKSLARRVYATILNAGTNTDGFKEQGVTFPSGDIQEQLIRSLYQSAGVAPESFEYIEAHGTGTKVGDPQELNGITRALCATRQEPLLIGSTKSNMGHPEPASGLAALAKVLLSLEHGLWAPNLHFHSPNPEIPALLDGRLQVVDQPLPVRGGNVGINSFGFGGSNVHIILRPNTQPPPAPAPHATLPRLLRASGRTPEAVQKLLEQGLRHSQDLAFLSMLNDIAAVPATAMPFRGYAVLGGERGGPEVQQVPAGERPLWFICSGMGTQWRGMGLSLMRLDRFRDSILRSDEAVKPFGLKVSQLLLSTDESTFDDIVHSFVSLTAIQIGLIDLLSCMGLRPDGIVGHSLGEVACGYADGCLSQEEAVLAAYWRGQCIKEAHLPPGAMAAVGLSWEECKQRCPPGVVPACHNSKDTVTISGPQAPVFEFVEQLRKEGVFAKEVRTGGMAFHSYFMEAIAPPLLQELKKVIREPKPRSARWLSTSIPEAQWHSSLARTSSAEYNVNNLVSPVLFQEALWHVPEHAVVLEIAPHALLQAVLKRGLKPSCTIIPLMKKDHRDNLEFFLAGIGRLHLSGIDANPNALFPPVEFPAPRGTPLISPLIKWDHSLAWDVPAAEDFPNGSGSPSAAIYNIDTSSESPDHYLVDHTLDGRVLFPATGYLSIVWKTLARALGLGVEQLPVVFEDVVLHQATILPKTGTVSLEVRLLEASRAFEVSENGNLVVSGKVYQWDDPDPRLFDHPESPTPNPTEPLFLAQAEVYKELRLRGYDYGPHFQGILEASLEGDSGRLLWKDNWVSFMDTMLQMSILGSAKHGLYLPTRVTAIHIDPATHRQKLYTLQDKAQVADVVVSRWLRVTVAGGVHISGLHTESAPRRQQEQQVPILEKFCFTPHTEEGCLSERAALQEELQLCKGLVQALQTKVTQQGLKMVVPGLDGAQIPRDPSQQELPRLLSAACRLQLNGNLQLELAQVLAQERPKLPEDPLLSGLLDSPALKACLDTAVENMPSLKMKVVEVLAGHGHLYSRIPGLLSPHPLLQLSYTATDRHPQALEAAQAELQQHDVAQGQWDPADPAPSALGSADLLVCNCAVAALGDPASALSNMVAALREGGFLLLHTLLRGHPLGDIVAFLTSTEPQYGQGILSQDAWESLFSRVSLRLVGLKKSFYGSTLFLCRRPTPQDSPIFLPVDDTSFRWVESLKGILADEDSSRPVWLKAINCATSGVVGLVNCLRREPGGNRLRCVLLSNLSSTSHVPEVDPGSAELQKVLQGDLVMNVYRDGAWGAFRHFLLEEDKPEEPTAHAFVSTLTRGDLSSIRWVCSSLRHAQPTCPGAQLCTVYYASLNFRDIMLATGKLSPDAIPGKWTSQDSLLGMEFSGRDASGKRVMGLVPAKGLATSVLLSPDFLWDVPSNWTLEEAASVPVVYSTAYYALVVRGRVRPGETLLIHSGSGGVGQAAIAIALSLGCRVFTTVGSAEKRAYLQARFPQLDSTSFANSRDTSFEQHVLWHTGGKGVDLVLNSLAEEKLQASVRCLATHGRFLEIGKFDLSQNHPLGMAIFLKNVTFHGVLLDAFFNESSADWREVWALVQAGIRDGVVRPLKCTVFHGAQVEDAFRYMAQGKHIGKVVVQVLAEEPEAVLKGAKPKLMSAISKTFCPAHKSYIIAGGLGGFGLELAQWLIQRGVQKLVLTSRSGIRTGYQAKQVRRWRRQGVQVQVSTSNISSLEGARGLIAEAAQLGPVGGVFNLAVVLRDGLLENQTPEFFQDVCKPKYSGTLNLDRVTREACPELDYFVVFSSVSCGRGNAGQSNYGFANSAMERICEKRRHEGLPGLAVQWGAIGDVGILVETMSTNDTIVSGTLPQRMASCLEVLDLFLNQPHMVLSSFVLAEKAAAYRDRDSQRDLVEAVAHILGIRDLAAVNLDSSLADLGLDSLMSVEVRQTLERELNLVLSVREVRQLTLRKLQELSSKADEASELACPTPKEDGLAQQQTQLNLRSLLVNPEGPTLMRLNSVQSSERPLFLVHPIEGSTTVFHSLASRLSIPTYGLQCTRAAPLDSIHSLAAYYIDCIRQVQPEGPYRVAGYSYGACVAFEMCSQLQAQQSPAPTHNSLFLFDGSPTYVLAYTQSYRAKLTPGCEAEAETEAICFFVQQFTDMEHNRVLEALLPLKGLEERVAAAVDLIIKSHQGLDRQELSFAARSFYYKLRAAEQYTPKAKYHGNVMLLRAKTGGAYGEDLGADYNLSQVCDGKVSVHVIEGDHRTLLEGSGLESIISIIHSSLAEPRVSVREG
In short: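 Scintillation proximity format: in-house full-length enzyme, 300 ng per well, pH 7.5 phosphate/DTT buffer, ³H-acetyl-CoA and malonyl-CoA. Emission counted on LEADseeker at 610 nm at least 24 h after stopping.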

[4] = system: A2780 ovarian cells; experiment: A2780 ovarian cell proliferation assay in lipid reduced medium, with palmitate (MTT); format: cell-based; details: Homo sapiens, A2780, 96 h; read-out: pIC50 A2780 Ovarian Cell, With Palmitate (converted)
In short: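 In this palmitate-supplemented format, compound dilutions (30 μM down to 0.01 μM) are added to cells in lipid-reduced serum with 25 μM palmitate, 0.2% fatty-acid-free BSA and 0.25% ethanol. After four days (96 h) MTT absorbance at 544 nm is recorded and fitted by minimum sum of squares.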

[5] = biological target: Fatty Acid Synthase Keto-reductase Domain (FASN KR) (Homo sapiens, UniProt P49327); experiment: Fatty Acid Synthase keto-reductase domain (FASN KR) inhibition, NADPH oxidation at 340 nm
Chain of Fatty Acid Synthase Keto-reductase Domain (FASN KR) (P49327 whole entry, the tested form may be a part): as the sequence (P49327 whole entry) above
Description: After 20 minutes incubation at room temperature the plate was measured again (T2).
The decrease in absorbance was calculated as (Absorbance before incubation T1)−(Absorbance following incubation T2).
A plot of Controlmin versus test compound concentration was fitted to a 4-parameter logistic curve using a non-linear least squares regression method.

[6] = system: LNCaP-Vancouver prostate cells; experiment: In vitro LNCaP Vancouver prostate cell proliferation assay in lipid reduced medium; format: cell-based; details: read-out: pIC50 LNCaP_Vancouver prostate cell (converted)
Description: LNCaP-Vancouver prostate cells were obtained from the Vancouver Prostate Cancer Centre. Cells were maintained in RPMI-1640, 10% Fetal Calf Serum (FCS, Hyclone), 2 mM glutamine and 50 μg/ml Gentamicin.
For the proliferation experiment 1500 LNCaP-Vancouver cells per well were seeded in a 384-well black with clear bottom plate (costar 3712BC) in 40 μl RPMI-1640, 10% Lipid reduced serum (LRS, Hyclone), 50 μg/ml Gentamicin and 2 mM Glutamine and incubated at 37° C., 5% CO2. The next day 10 μl of test compound/DMSO diluted in medium was added (3E-5M, 1E-5M, 3E-6M, 1E-6M, 3E-7M, 1E-7M, 3E-8M, 1E-8M final concentration). Compounds were tested in duplicate. After 96 h incubation at 37° C., 5% CO2 25 μl ATP-glow mix was added. The plate was incubated for 30 min at 37° C. and luminescence was measured with the Envision.
as §1, §2, §3
For dose response curves with FASN inhibitors in LNCaP-Vancouver or PC-3M-Luc-C6 cells the curves bottom out around 30 to 40% of the control value. A standard fit PL2, forcing the lower bound to this level was used.
Representative compounds of the present invention were tested according to the procedure as described in Biological Example 4a and 4b above, with results as listed in Table 9, below.

IC50 [1] [nM] | IC50 [2] [nM] | inhibition at 10 µM [3] [%] | IC50 [3] [nM] | IC50 [4] [nM] | IC50 [5] [nM] | IC50 [6] [nM] | Compound
759 | 1550 | 97 | 138 | > 10000 | 603 | – | COCCN1CCC2(CC1)N=C(c1ccc(-c3ccc4occc4c3)cc1)N(C[C@@H]1CCN(C(=O)C3CC3)C1)C2=O [compound 749, 2-[4-(1-Benzofurann-5-yl)phenyl]-3-{[(3R)-1-(cyclopropylcarbonyl)pyrrolidin-3-yl]methyl}-8-(2-methoxyethyl)-1,3,8-triazaspiro[4.5]dec-1-en-4-one]
457 | 479 | – | – | > 10000 | – | – | Cn1ncc2cc(-c3ccc(C4=NC5(CC5)C(=O)N4C[C@@H]4CCN(C(=O)C5CC5)C4)cc3F)ccc21 [compound 405, 6-{[(3R)-1-(Cyclopropylcarbonyl)pyrrolidin-3-yl]methyl}-5-[3-fluoro-4-(1-methyl-1H-indazol-5-yl)phenyl]-4,6-diazaspiro[2.4]hept-4-en-7-one]
234 | – | 99 | – | – | – | – | Cc1cc(-c2ccc3c(cnn3C)c2)ccc1C1=NC2(CC2)C(=O)N1CC1CN(C(=O)C2(O)CC2)C1 [compound 498, 6-({1-[(1-Hydroxycyclopropyl)carbonyl]-azetidin-3-yl}methyl)-5-[2-methyl-4-(1-methyl-1H-indazol-5-yl)phenyl]-4,6-diazaspiro[2.4]hept-4-en-7-one]
– | 174 | 97 | 186 | > 6170 | 347 | 1200 | N#Cc1ccc2sc(-c3ccc(C4=NC5(CC5)C(=O)N4CC4CN(C(=O)C5CC5)C4)c(F)c3)nc2c1 [compound 652, 2-[4-(6-{[1-(Cyclopropylcarbonyl)azetidin-3-yl]methyl}-7-oxo-4,6-diazaspiro[2.4]hept-4-en-5-yl)-3-fluorophenyl]-1,3-benzothiazole-5-carbonitrile]
– | 93.3 | 81 | 331 | > 10000 | 363 | 1050 | Cn1ncc2cc(-c3ccc(C4=NC5(CC5)C(=O)N4C[C@@H]4CCN(C(=O)C5COC5)C4)cc3)ccc21 [compound 490, 5-[4-(1-Methyl-1H-indazol-5-yl)phenyl]-6-{[(3R)-1-(oxetan-3-ylcarbonyl)pyrrolidin-3-yl]methyl}-4,6-diazaspiro[2.4]hept-4-en-7-one]
– | 776 | 97 | 263 | > 10000 | 2950 | 5130 | Cn1nc(CO)c2cc(-c3ccc(C4=NC5(CC5)C(=O)N4CC4CN(C(=O)C5CC5)C4)cc3)ccc21 [compound 530, 6-{[1-(Cyclopropylcarbonyl)azetidin-3-yl]methyl}-5-{4-[3-(hydroxymethyl)-1-methyl-1H-indazol-5-yl]phenyl}-4,6-diazaspiro[2.4]hept-4-en-7-one]
– | 182 | 99 | 151 | > 10000 | 200 | 525 | Cn1nc(C2CC2)c2cc(-c3ccc(C4=NC5(CC5)C(=O)N4C[C@@H]4CCN(C(=O)C5CC5)C4)cc3)ccc21 [compound 465, 6-{[(3R)-1-(Cyclopropylcarbonyl)pyrrolidin-3-yl]methyl}-5-[4-(3-cyclopropyl-1-methyl-1H-indazol-5-yl)phenyl]-4,6-diazaspiro[2.4]hept-4-en-7-one]
– | 141 | 97 | 145 | > 10000 | 479 | 2000 | O=C(C1CC1)N1CC(CN2C(=O)C3(CC3)N=C2c2ccc(-c3ccc4cncnc4c3)cc2)C1 [compound 543, 6-{[1-(Cyclopropylcarbonyl)azetidin-3-yl]methyl}-5-(4-quinazolin-7-ylphenyl)-4,6-diazaspiro[2.4]hept-4-en-7-one]
– | 550 | 107 | 40.7 | > 10000 | 105 | 1230 | Cc1cc(C2=NC3(CC3)C(=O)N2C[C@@H]2CCN(C(=O)C3CC3)C2)ccc1-c1ccc2sccc2c1 [compound 230, (R)-5-(4-(benzo[b]thiophen-5-yl)-3-methylphenyl)-6-((1-(cyclopropanecarbonyl)pyrrolidin-3-yl)methyl)-4,6-diazaspiro[2.4]hept-4-en-7-one]
– | 20 | 103 | 50.1 | > 10000 | 69.2 | 105 | Cc1cc(-c2ccc3cn(C)nc3c2)ccc1C1=NC2(CC2)C(=O)N1CC1CN(C(=O)C2(C)CC2)C1 [compound 336, 5-(2-methyl-4-(2-methyl-2H-indazol-6-yl)phenyl)-6-((1-(1-methylcyclopropanecarbonyl)azetidin-3-yl)methyl)-4,6-diazaspiro[2.4]hept-4-en-7-one]
– | 2400 | 105 | 83.2 | > 6170 | 324 | 1820 | O=C(C1CC1)N1CC[C@@H](CN2C(=O)C3(CC3)N=C2c2ccc(-c3ccc4occc4c3)c(F)c2)C1 [compound 232, (R)-5-(4-(benzofuran-5-yl)-3-fluorophenyl)-6-((1-(cyclopropanecarbonyl)pyrrolidin-3-yl)methyl)-4,6-diazaspiro[2.4]hept-4-en-7-one]
– | 417 | 99 | 182 | > 10000 | 331 | 1290 | CCC(=O)N1CC(CN2C(=O)C3(CC3)N=C2c2ccc(-c3ccc4c(cnn4C)c3)cc2C)C1 [compound 471, 5-[2-Methyl-4-(1-methyl-1H-indazol-5-yl)phenyl]-6-[(1-propanoylazetidin-3-yl)methyl]-4,6-diazaspiro[2.4]hept-4-en-7-one]
– | ~2690 | 87 | 479 | > 10000 | 1350 | 3800 | O=C(C1CC1)N1CC[C@@H](CN2C(=O)C3(CC3)N=C2c2ccc(-c3ccc4cnc(Cl)cc4c3)cc2)C1 [compound 466, 5-[4-(3-Chloroisoquinolin-6-yl)phenyl]-6-{[(3R)-1-(cyclopropylcarbonyl)pyrrolidin-3-yl]methyl}-4,6-diazaspiro[2.4]hept-4-en-7-one]
– | ~2040 | 90 | 263 | > 10000 | 617 | 3720 | Cc1cc(C2=NC3(CC3)C(=O)N2C[C@@H]2CCN(C(=O)C3CC3)C2)ccc1-c1ccc2oc(C#N)cc2c1 [compound 476, 5-[4-(6-{[(3R)-1-(Cyclopropylcarbonyl)pyrrolidin-3-yl]methyl}-7-oxo-4,6-diazaspiro[2.4]hept-4-en-5-yl)-2-methylphenyl]-1-benzofuran-2-carbonitrile]
– | 1000 | 87 | 676 | > 10000 | 3090 | 3980 | O=C1CCc2cc(-c3ccc(C4=NC5(CC5)C(=O)N4C[C@@H]4CCN(C(=O)C5CC5)C4)cc3)ccc2N1 [compound 512, 6-[4-(6-{[(3R)-1-(Cyclopropylcarbonyl)pyrrolidin-3-yl]methyl}-7-oxo-4,6-diazaspiro[2.4]hept-4-en-5-yl)phenyl]-3,4-dihydroquinolin-2(1H)-one]
